{
  "source": "paper PMC5811606",
  "about": "“Characterization of ^111In-labeled Glucose-Dependent Insulinotropic Polypeptide as a Radiotracer for Neuroendocrine Tumors” (Scientific Reports, 2018)",
  "assay": "Biodistribution study, BHK-GIPR tumor mice",
  "format": "in vivo, BALB/c nude mice",
  "details": "female, mouse, iv, total radioactivity, BHK-GIPR tumor BALB/c nude mice, i.v., 0.2 µg, mean n=5; for tissue uptake at 1 h / tissue uptake at 4 h / tissue uptake at 24 h: BALB/c nude; for tissue uptake at 24 h / tissue to tissue ratio at 24 h: 24 h p.i.",
  "experimental": "All animal experiments were approved by the Animal Welfare Body of the Radboud University, Nijmegen, The Netherlands and carried out in accordance with their guidelines. Six to eight weeks old, female BALB/c nude mice and C3H mice were purchased from Janvier labs (Le Genest Saint Isle, France). For all in vivo experiments, 6-8 weeks old female BALB/c nude mice were injected subcutaneously in the right shoulder with 0.2 ml of a 2.5 × 10^7 cells/ml suspension of BHK-GIPR transfected cells or with 0.2 ml of a 2.5 × 10^7 cells/ml suspension of NES2Y cells mixed with matrigel (2:1) in the right shoulder. When the tumor reached a diameter of 2-5 mm, mice were randomly divided in groups.\nBALB/c nude mice bearing BHK-GIPR transfected tumors were injected intravenously with approximately 3 MBq (peptide dose 0.2 µg = 0.04 nmol) of [Lys^37(^111In-DTPA)]N-acetyl-GIP1-42 via the tail vein. At various time points after injection (1, 4 and 24 hours), mice were euthanized by CO2/O2 suffocation and blood, tumor and other relevant tissues were dissected, weighed and measured in a well type gamma counter. The percentage injected dose per gram (%ID/g) was calculated for each tissue. To determine whether the GIP1-42 uptake was GIPR mediated, 25 µg of unlabeled GIP1-42 was co-injected in a separate group (n = 5) and mice were euthanized four hours post-injection. BALB/c nude mice bearing NES2Y tumors (n = 5) were injected intravenously with approximately 3 MBq (peptide dose 0.2 µg = 0.04 nmol) of [Lys^37(^111In-DTPA)]N-acetyl-GIP1-42 via the tail vein. One hour after injection, mice were euthanized by CO2/O2 suffocation and blood, tumor and other relevant tissues were dissected, weighed and measured in a well type gamma counter. The percentage injected dose per gram (%ID/g) was determined for each tissue. To determine whether the GIP1-42 uptake was GIPR mediated, 25 µg of unlabeled GIP1-42 was co-injected in a separate group (n = 2) and mice were euthanized one hours post-injection.",
  "note": "Like-named read-outs stand apart in the source and are kept apart here.",
  "data": [
    {"smiles": "CC[C@H](C)[C@H](NC(=O)[C@H](CO)NC(=O)[C@H](Cc1ccc(O)cc1)NC(=O)[C@H](CC(=O)O)NC(=O)[C@H](CO)NC(=O)[C@@H](NC(=O)[C@H](Cc1ccccc1)NC(=O)[C@@H](NC(=O)CNC(=O)[C@H](CCC(=O)O)NC(=O)[C@H](C)NC(=O)[C@H](Cc1ccc(O)cc1)NC(C)=O)[C@@H](C)O)[C@@H](C)CC)C(=O)N[C@@H](C)C(=O)N[C@@H](CCSC)C(=O)N[C@@H](CC(=O)O)C(=O)N[C@@H](CCCCN)C(=O)N[C@H](C(=O)N[C@@H](Cc1c[nH]cn1)C(=O)N[C@@H](CCC(N)=O)C(=O)N[C@@H](CCC(N)=O)C(=O)N[C@@H](CC(=O)O)C(=O)N[C@@H](Cc1ccccc1)C(=O)N[C@H](C(=O)N[C@@H](CC(N)=O)C(=O)N[C@@H](Cc1c[nH]c2ccccc12)C(=O)N[C@@H](CC(C)C)C(=O)N[C@@H](CC(C)C)C(=O)N[C@@H](C)C(=O)N[C@@H](CCC(N)=O)C(=O)N[C@@H](CCCCN)C(=O)NCC(=O)N[C@@H](CCCCN)C(=O)N[C@@H](CCCCN)C(=O)N[C@@H](CC(N)=O)C(=O)N[C@@H](CC(=O)O)C(=O)N[C@@H](Cc1c[nH]c2ccccc12)C(=O)N[C@@H](CCCCNC(=O)CN(CCN(CCN(CC(=O)O)CC(=O)O)CC(=O)O)CC(=O)O)C(=O)N[C@@H](Cc1c[nH]cn1)C(=O)N[C@@H](CC(N)=O)C(=O)N[C@H](C(=O)N[C@H](C(=O)N[C@@H](CCC(N)=O)C(=O)O)[C@@H](C)O)[C@@H](C)CC)C(C)C)[C@@H](C)CC", "note": "[[Lys^37(^111In-DTPA)]N-acetyl-GIP1-42, metal not drawn]", "values": [
      {"measurement": "tissue uptake at 1 h", "setting": "BHK-GIPR tumor, 0.2 ug, 1 h p.i., read-out: Tumor uptake", "value": 4.69, "unit": "%ID/g"},
      {"measurement": "tissue uptake at 4 h", "setting": "BHK-GIPR tumor, 0.2 ug, 4 h p.i., read-out: Tumor uptake", "value": 3.27, "unit": "%ID/g"},
      {"measurement": "tissue uptake at 24 h", "setting": "BHK-GIPR tumor, 0.2 ug, read-out: Tumor uptake", "value": "2 ± 0.2", "unit": "%ID/g"},
      {"measurement": "tissue uptake at 4 h", "setting": "BHK-GIPR tumor, 4 h p.i. + xs (25 µg unlabeled GIP1-42), read-out: Tumor uptake", "value": "0.8 ± 0.2", "unit": "%ID/g"},
      {"measurement": "tissue uptake at 1 h", "setting": "blood, 0.2 ug, 1 h p.i., read-out: Blood uptake", "value": 0.248, "unit": "%ID/g"},
      {"measurement": "tissue uptake at 4 h", "setting": "blood, 0.2 ug, 4 h p.i., read-out: Blood uptake", "value": 0.045, "unit": "%ID/g"},
      {"measurement": "tissue uptake at 24 h", "setting": "blood, 0.2 ug, read-out: Blood uptake", "value": 0.017, "unit": "%ID/g"},
      {"measurement": "tissue uptake at 4 h", "setting": "blood, 4 h p.i. + xs (25 µg unlabeled GIP1-42), read-out: Blood uptake", "value": 0.031, "unit": "%ID/g"},
      {"measurement": "tissue uptake at 1 h", "setting": "duodenum, 0.2 ug, 1 h p.i., read-out: Duodenum uptake", "value": 0.561, "unit": "%ID/g"},
      {"measurement": "tissue uptake at 4 h", "setting": "duodenum, 0.2 ug, 4 h p.i., read-out: Duodenum uptake", "value": 0.448, "unit": "%ID/g"},
      {"measurement": "tissue uptake at 24 h", "setting": "duodenum, 0.2 ug, read-out: Duodenum uptake", "value": 0.378, "unit": "%ID/g"},
      {"measurement": "tissue uptake at 4 h", "setting": "duodenum, 4 h p.i. + xs (25 µg unlabeled GIP1-42), read-out: Duodenum uptake", "value": 0.392, "unit": "%ID/g"},
      {"measurement": "tissue uptake at 1 h", "setting": "heart, 0.2 ug, 1 h p.i., read-out: Heart uptake", "value": 0.2, "unit": "%ID/g"},
      {"measurement": "tissue uptake at 4 h", "setting": "heart, 0.2 ug, 4 h p.i., read-out: Heart uptake", "value": 0.116, "unit": "%ID/g"},
      {"measurement": "tissue uptake at 24 h", "setting": "heart, 0.2 ug, read-out: Heart uptake", "value": 0.081, "unit": "%ID/g"},
      {"measurement": "tissue uptake at 4 h", "setting": "heart, 4 h p.i. + xs (25 µg unlabeled GIP1-42), read-out: Heart uptake", "value": 0.096, "unit": "%ID/g"},
      {"measurement": "tissue uptake at 1 h", "setting": "kidney, 0.2 ug, 1 h p.i., read-out: Kidney uptake", "value": 211, "unit": "%ID/g"},
      {"measurement": "tissue uptake at 4 h", "setting": "kidney, 0.2 ug, 4 h p.i., read-out: Kidney uptake", "value": 228, "unit": "%ID/g"},
      {"measurement": "tissue uptake at 24 h", "setting": "kidney, 0.2 ug, read-out: Kidney uptake", "value": 173, "unit": "%ID/g"},
      {"measurement": "tissue uptake at 4 h", "setting": "kidney, 4 h p.i. + xs (25 µg unlabeled GIP1-42), read-out: Kidney uptake", "value": 227, "unit": "%ID/g"},
      {"measurement": "tissue uptake at 1 h", "setting": "liver, 0.2 ug, 1 h p.i., read-out: Liver uptake", "value": 1.1, "unit": "%ID/g"},
      {"measurement": "tissue uptake at 4 h", "setting": "liver, 0.2 ug, 4 h p.i., read-out: Liver uptake", "value": 1.16, "unit": "%ID/g"},
      {"measurement": "tissue uptake at 24 h", "setting": "liver, 0.2 ug, read-out: Liver uptake", "value": 0.695, "unit": "%ID/g"},
      {"measurement": "tissue uptake at 4 h", "setting": "liver, 4 h p.i. + xs (25 µg unlabeled GIP1-42), read-out: Liver uptake", "value": 1.09, "unit": "%ID/g"},
      {"measurement": "tissue uptake at 1 h", "setting": "lung, 0.2 ug, 1 h p.i., read-out: Lung uptake", "value": 0.545, "unit": "%ID/g"},
      {"measurement": "tissue uptake at 4 h", "setting": "lung, 0.2 ug, 4 h p.i., read-out: Lung uptake", "value": 0.332, "unit": "%ID/g"},
      {"measurement": "tissue uptake at 24 h", "setting": "lung, 0.2 ug, read-out: Lung uptake", "value": 0.184, "unit": "%ID/g"},
      {"measurement": "tissue uptake at 4 h", "setting": "lung, 4 h p.i. + xs (25 µg unlabeled GIP1-42), read-out: Lung uptake", "value": 0.331, "unit": "%ID/g"},
      {"measurement": "tissue uptake at 1 h", "setting": "muscle, 0.2 ug, 1 h p.i., read-out: Muscle uptake", "value": 0.135, "unit": "%ID/g"},
      {"measurement": "tissue uptake at 4 h", "setting": "muscle, 0.2 ug, 4 h p.i., read-out: Muscle uptake", "value": 0.082, "unit": "%ID/g"},
      {"measurement": "tissue uptake at 24 h", "setting": "muscle, 0.2 ug, read-out: Muscle uptake", "value": 0.058, "unit": "%ID/g"},
      {"measurement": "tissue uptake at 4 h", "setting": "muscle, 4 h p.i. + xs (25 µg unlabeled GIP1-42), read-out: Muscle uptake", "value": 0.068, "unit": "%ID/g"},
      {"measurement": "tissue uptake at 1 h", "setting": "pancreas, 0.2 ug, 1 h p.i., read-out: Pancreas uptake", "value": 0.296, "unit": "%ID/g"},
      {"measurement": "tissue uptake at 4 h", "setting": "pancreas, 0.2 ug, 4 h p.i., read-out: Pancreas uptake", "value": 0.193, "unit": "%ID/g"},
      {"measurement": "tissue uptake at 24 h", "setting": "pancreas, 0.2 ug, read-out: Pancreas uptake", "value": 0.137, "unit": "%ID/g"},
      {"measurement": "tissue uptake at 4 h", "setting": "pancreas, 4 h p.i. + xs (25 µg unlabeled GIP1-42), read-out: Pancreas uptake", "value": 0.147, "unit": "%ID/g"},
      {"measurement": "tissue uptake at 1 h", "setting": "spleen, 0.2 ug, 1 h p.i., read-out: Spleen uptake", "value": 0.603, "unit": "%ID/g"},
      {"measurement": "tissue uptake at 4 h", "setting": "spleen, 0.2 ug, 4 h p.i., read-out: Spleen uptake", "value": 0.528, "unit": "%ID/g"},
      {"measurement": "tissue uptake at 24 h", "setting": "spleen, 0.2 ug, read-out: Spleen uptake", "value": 0.493, "unit": "%ID/g"},
      {"measurement": "tissue uptake at 4 h", "setting": "spleen, 4 h p.i. + xs (25 µg unlabeled GIP1-42), read-out: Spleen uptake", "value": 0.519, "unit": "%ID/g"},
      {"measurement": "tissue uptake at 1 h", "setting": "stomach, 0.2 ug, 1 h p.i., read-out: Stomach uptake", "value": 0.502, "unit": "%ID/g"},
      {"measurement": "tissue uptake at 4 h", "setting": "stomach, 0.2 ug, 4 h p.i., read-out: Stomach uptake", "value": 0.362, "unit": "%ID/g"},
      {"measurement": "tissue uptake at 24 h", "setting": "stomach, 0.2 ug, read-out: Stomach uptake", "value": 0.258, "unit": "%ID/g"},
      {"measurement": "tissue uptake at 4 h", "setting": "stomach, 4 h p.i. + xs (25 µg unlabeled GIP1-42), read-out: Stomach uptake", "value": 0.268, "unit": "%ID/g"},
      {"measurement": "tissue to tissue ratio at 24 h", "setting": "tumor and lung, 0.2 ug, read-out: Tumor/Lung", "value": 11.3},
      {"measurement": "tissue to tissue ratio at 1 h", "setting": "tumor/blood, 0.2 ug, 1 h p.i., read-out: Tumor/Blood", "value": 21.8},
      {"measurement": "tissue to tissue ratio at 4 h", "setting": "tumor/blood, 0.2 ug, 4 h p.i., read-out: Tumor/Blood", "value": 77.6},
      {"measurement": "tissue to tissue ratio at 24 h", "setting": "tumor/blood, 0.2 ug, read-out: Tumor/Blood", "value": 130}
    ]}
  ]
}
